From patent US8415342B2, “Besifloxacin ophthalmic composition for the treatment or control of infection” (Bausch & Lomb Incorporated, priority 2008, dated 2013)
Converted amounts (≈) assume the structure as drawn. Like-named read-outs stand apart in the source and are kept apart here.

Assays:
[1] = tested on: Pathogens Associated With Bacterial Conjunctivitis; experiment: Integrated besifloxacin MIC data from preclinical (nonclinical) studies (Table 8); type: cell-based; details: for MIC50: read-out: MIC50
[2] = Nonclinical ocular and systemic pharmacokinetics after topical ocular administration; type: in vivo; details: for peak plasma besifloxacin concentration, on average: topical ocular administration
Description: Results from the nonclinical ocular pharmacokinetic (PK) studies indicate that topical ocular administration of besifloxacin ophthalmic suspension, 0.6%, is associated with rapid absorption and distribution of besifloxacin into ocular tissues. […] However, based on the extensive ocular safety data available for besifloxacin, no adverse consequences are expected.
Systemic exposure to besifloxacin following topical ocular administration was low, with peak plasma besifloxacin concentrations of 7.6 and 9.2 ng/mL, respectively, on average.

bacterial conjunctivitis = experiment: Study 373: besifloxacin ophthalmic suspension vs vehicle, TID 5 days; details: N = 60; for Clinical Resolution (2 indices), Resolution / Clinical Resolution (3 indices), No / Clinical Resolution (3 indices), Yes / Microbial Eradication, No / Microbial Eradication, Yes: ITT culture confirmed; for Clinical Resolution (2 indices), Non-resolution: missing or discontinued imputed as non-resolution
[3] = Proteus mirabilis Quinolone-S, N 98
[4] = Serratia marcescens Quinolone-S, N 98
[5] = Visit 3 (Day 8 or 9), primary endpoint

In the case of `N[C@@H]1CCCCN(c2c(F)cc3c(=O)c(C(=O)O)cn(C4CC4)c3c2Cl)C1` [Besifloxacin, (R)-(+)-(3-amino-2,3,4,5,6,7-hexahydro-1H-azepin-1-yl)-8-chloro-1-cyclopropyl-6-fluoro-1,4,-dihydro-4-oxo-3-quinolinecarboxylic acid], the “MIC Range” value ([1]; Propionibacterium acnes, N 21, agar dilution) was 0.12 to 0.25 µg/mL, the “MIC Range” value [1, 3] was 0.25 to 4 µg/mL and the MIC50 [1, 3] was 0.5 µg/mL (≈ 1.27 µM). For the same molecule, the MIC90 ([1]; Proteus mirabilis, Proteus mirabilis Quinolone-S, N 98, read-out: MIC90) was 1 µg/mL (≈ 2.54 µM), the “MIC Range” value ([1]; Pseudomonas aeruginosa Quinolone-S, N 49) was 0.5 to 4 µg/mL and the MIC50 ([1]; Pseudomonas aeruginosa, Pseudomonas aeruginosa Quinolone-R, N 51) was greater than 8 µg/mL. The MIC90 ([1]; Pseudomonas aeruginosa, Pseudomonas aeruginosa Quinolone-R, N 51, read-out: MIC90) was greater than 8 µg/mL, the MIC50 ([1]; Pseudomonas aeruginosa, Pseudomonas aeruginosa Quinolone-S, N 49) was 1 µg/mL (≈ 2.54 µM) and the MIC90 ([1]; Pseudomonas aeruginosa, Pseudomonas aeruginosa Quinolone-S, N 49, read-out: MIC90) was 2 µg/mL (≈ 5.08 µM). The MIC90 ([1]; S. aureus, value used for PK/PD ratios of Study 424) was “^aMIC90: S. aureus = 1 μg/mL”, the “MIC Range” value [1, 4] was 0.25 to 2 µg/mL and the MIC50 [1, 4] was 1 µg/mL (≈ 2.54 µM). For the same molecule, the MIC90 ([1]; Serratia marcescens, Serratia marcescens Quinolone-S, N 98, read-out: MIC90) was 2 µg/mL (≈ 5.08 µM), the “MIC Range” value ([1]; Staphylococcus aureus MRSA-QR, N 73) was 0.25 to 8 µg/mL and the “MIC Range” value ([1]; Staphylococcus aureus MSSA-QR, N 12) was 0.03 to 4 µg/mL. It also gave an MIC50 ([1]; Staphylococcus aureus, MRSA, Staphylococcus aureus MRSA-QR, N 73) of 1 µg/mL (≈ 2.54 µM), an MIC50 ([1]; Staphylococcus aureus, MRSA, Staphylococcus aureus MRSA-QS, N 36) of 0.03 µg/mL (≈ 0.0762 µM) and an MIC50 ([1]; Staphylococcus aureus, MSSA, Staphylococcus aureus MSSA-QR, N 12) of 0.25 µg/mL (≈ 0.635 µM). It also gave an MIC90 ([1]; Staphylococcus aureus, MSSA, Staphylococcus aureus MSSA-QR, N 12, read-out: MIC90) of 4 µg/mL (≈ 10.2 µM), an MIC50 ([1]; Staphylococcus aureus, MSSA, Staphylococcus aureus MSSA-QS, N 80) of 0.03 µg/mL (≈ 0.0762 µM) and an MIC90 ([1]; Staphylococcus aureus, S. aureus, value used for PK/PD ratios of Study 424, read-out: MIC90) of 1 µg/mL. For the same molecule, the “MIC Range” value ([1]; Staphylococcus epidermidis MRSE-QR, N 32) was 0.25 to 8 µg/mL, the “MIC Range” value ([1]; Staphylococcus epidermidis MSSE-QR, N 5) was 0.25 to 1 µg/mL and the “MIC Range” value ([1]; Staphylococcus epidermidis MSSE-QS, N 39) was 0.015 to 0.06 µg/mL. For the same molecule, the MIC50 ([1]; Staphylococcus epidermidis, MRSE, Staphylococcus epidermidis MRSE-QR, N 32) was 2 µg/mL (≈ 5.08 µM), the MIC50 ([1]; Staphylococcus epidermidis, MRSE, Staphylococcus epidermidis MRSE-QS, N 23) was 0.03 µg/mL (≈ 0.0762 µM) and the MIC50 ([1]; Staphylococcus epidermidis, Staphylococcus epidermidis MSSE-QR, N 5) was 0.5 µg/mL (≈ 1.27 µM). The “MIC Range” value ([1]; Staphylococcus hominis Quinolone-R, N 35) was 0.125 to 2 µg/mL, the “MIC Range” value ([1]; Staphylococcus hominis Quinolone-S, N 15) was 0.015 to 0.06 µg/mL and the MIC50 ([1]; Staphylococcus hominis, Staphylococcus hominis Quinolone-S, N 15) was 0.03 µg/mL (≈ 0.0762 µM). The MIC90 ([1]; Staphylococcus hominis, Staphylococcus hominis Quinolone-S, N 15, read-out: MIC90) was 0.06 µg/mL (≈ 0.152 µM), the “MIC Range” value ([1]; Staphylococcus lugdunensis Quinolone-R, N 5) was 0.125 to 2 µg/mL and the “MIC Range” value ([1]; Staphylococcus lugdunensis Quinolone-S, N 10) was 0.015 to 0.06 µg/mL. The MIC50 ([1]; Staphylococcus lugdunensis, Staphylococcus lugdunensis Quinolone-R, N 5) was 0.5 µg/mL (≈ 1.27 µM), the MIC90 ([1]; Staphylococcus lugdunensis, Staphylococcus lugdunensis Quinolone-R, N 5, read-out: MIC90) was 2 µg/mL (≈ 5.08 µM) and the MIC50 ([1]; Staphylococcus lugdunensis, Staphylococcus lugdunensis Quinolone-S, N 10) was 0.03 µg/mL (≈ 0.0762 µM). It also gave an MIC90 ([1]; Staphylococcus lugdunensis, Staphylococcus lugdunensis Quinolone-S, N 10, read-out: MIC90) of 0.06 µg/mL (≈ 0.152 µM), an MIC50 ([1]; Streptococcus mitis, Streptococcus mitis group, N 90) of 0.06 µg/mL (≈ 0.152 µM) and an MIC90 ([1]; Streptococcus mitis, Streptococcus mitis group, N 90, read-out: MIC90) of 0.12 µg/mL (≈ 0.305 µM). The “MIC Range” value ([1]; Streptococcus oralis, N 22) was 0.03 to 2 µg/mL, the MIC50 ([1]; Streptococcus oralis, N 22) was 0.06 µg/mL (≈ 0.152 µM) and the MIC90 ([1]; Streptococcus oralis, N 22, read-out: MIC90) was 0.12 µg/mL (≈ 0.305 µM). For the same molecule, the “MIC Range” value ([1]; Streptococcus pneumoniae Penicillin-S, N 123) was 0.015 to 1 µg/mL, the MIC50 ([1]; Streptococcus pneumoniae, Streptococcus pneumoniae Penicillin-I, N 28) was 0.12 µg/mL (≈ 0.305 µM) and the MIC90 ([1]; Streptococcus pneumoniae, Streptococcus pneumoniae Penicillin-I, N 28, read-out: MIC90) was 0.12 µg/mL (≈ 0.305 µM). For the same molecule, the MIC50 ([1]; Streptococcus pneumoniae, Streptococcus pneumoniae Penicillin-R, N 61) was 0.12 µg/mL (≈ 0.305 µM), the MIC90 ([1]; Streptococcus pneumoniae, Streptococcus pneumoniae Penicillin-R, N 61, read-out: MIC90) was 0.12 µg/mL (≈ 0.305 µM) and the MIC50 ([1]; Streptococcus pneumoniae, Streptococcus pneumoniae Penicillin-S, N 123) was 0.12 µg/mL (≈ 0.305 µM). It also gave an MIC90 ([1]; Streptococcus pneumoniae, Streptococcus pneumoniae Penicillin-S, N 123, read-out: MIC90) of 0.12 µg/mL (≈ 0.305 µM), an MIC50 ([1]; Streptococcus pneumoniae, Streptococcus pneumoniae Quinolone-R, N 23) of 1 µg/mL (≈ 2.54 µM) and an MIC90 ([1]; Streptococcus pneumoniae, Streptococcus pneumoniae Quinolone-R, N 23, read-out: MIC90) of 4 µg/mL (≈ 10.2 µM). For the same molecule, the MIC50 ([1]; Streptococcus pyogenes, N 201) was 0.06 µg/mL (≈ 0.152 µM), the MIC90 ([1]; Streptococcus pyogenes, N 201, read-out: MIC90) was 0.12 µg/mL (≈ 0.305 µM) and the “MIC Range” value ([1]; Streptococcus salivarius, N 2) was 0.06 µg/mL (≈ 0.152 µM). The Cmax ([2]; non-excretory organs, topical or ocular, nonclinical, repeated (BID, TID, QID) topical ocular administration) was less than 25 ng/g, the half-life ([2]; ocular tissues, topical or ocular, nonclinical, topical ocular 0.6% suspension, read-out: apparent half-life of elimination from ocular tissues) was greater than 5 h and the “peak plasma besifloxacin concentration, on average” value ([2]; first of two groups not named ('respectively')) was 7.6 ng/mL. The “peak plasma besifloxacin concentration, on average” value ([2]; second of two groups not named ('respectively')) was 9.2 ng/mL, the “Clinical Resolution (2 indices), Resolution” value (bacterial conjunctivitis; Visit 2 (Day 4 ± 1)) was 20 (33.3) n (%) and the “Clinical Resolution (3 indices), No” value (bacterial conjunctivitis; Visit 2 (Day 4 ± 1)) was 46 (76.7) n (%). For the same molecule, the “Clinical Resolution (3 indices), Yes” value (bacterial conjunctivitis; Visit 2 (Day 4 ± 1)) was 14 (23.3) n (%), the “Microbial Eradication, No” value (bacterial conjunctivitis; Visit 2 (Day 4 ± 1)) was 6 (10.0) n (%) and the “Microbial Eradication, Yes” value (bacterial conjunctivitis; Visit 2 (Day 4 ± 1)) was 54 (90.0) n (%). The “Clinical Resolution (2 indices), Non-resolution” value (bacterial conjunctivitis; Visit 2 (Day 4 ± 1)) was 40 (66.7) n (%), the “Clinical Resolution (2 indices), Resolution” value (bacterial conjunctivitis; Visit 3 (Day 8 or 9)) was 44 (73.3) n (%) and the “Clinical Resolution (3 indices), No” value (bacterial conjunctivitis; Visit 3 (Day 8 or 9)) was 23 (38.3) n (%). The “Microbial Eradication, No” value (bacterial conjunctivitis; Visit 3 (Day 8 or 9)) was 6 (10.0) n (%), the “Clinical Resolution (2 indices), Non-resolution” value (bacterial conjunctivitis; Visit 3 (Day 8 or 9)) was 16 (26.7) n (%) and the “Clinical Resolution (3 indices), Yes” value (bacterial conjunctivitis; [5]) was 37 (61.7) n (%). The “Microbial Eradication, Yes” value (bacterial conjunctivitis; [5]) was 54 (90.0) n (%).
